The target of the experiment is recombinant human His6-USP1/His6-UAF1 composite protein (Homo sapiens (Human), UniProt O94782). Put plainly: USP1 enzyme activity detection (Ub-Rho fluorescence). Format: biochemical. As to conditions: USP1/UAF1, Ub-Rho substrate 300 nM, 1 hour pre-incubation; read-out: IC50 (enzymatic inhibition of USP1).
recombinant human His6-USP1/His6-UAF1 composite protein, sequence (O94782 whole entry): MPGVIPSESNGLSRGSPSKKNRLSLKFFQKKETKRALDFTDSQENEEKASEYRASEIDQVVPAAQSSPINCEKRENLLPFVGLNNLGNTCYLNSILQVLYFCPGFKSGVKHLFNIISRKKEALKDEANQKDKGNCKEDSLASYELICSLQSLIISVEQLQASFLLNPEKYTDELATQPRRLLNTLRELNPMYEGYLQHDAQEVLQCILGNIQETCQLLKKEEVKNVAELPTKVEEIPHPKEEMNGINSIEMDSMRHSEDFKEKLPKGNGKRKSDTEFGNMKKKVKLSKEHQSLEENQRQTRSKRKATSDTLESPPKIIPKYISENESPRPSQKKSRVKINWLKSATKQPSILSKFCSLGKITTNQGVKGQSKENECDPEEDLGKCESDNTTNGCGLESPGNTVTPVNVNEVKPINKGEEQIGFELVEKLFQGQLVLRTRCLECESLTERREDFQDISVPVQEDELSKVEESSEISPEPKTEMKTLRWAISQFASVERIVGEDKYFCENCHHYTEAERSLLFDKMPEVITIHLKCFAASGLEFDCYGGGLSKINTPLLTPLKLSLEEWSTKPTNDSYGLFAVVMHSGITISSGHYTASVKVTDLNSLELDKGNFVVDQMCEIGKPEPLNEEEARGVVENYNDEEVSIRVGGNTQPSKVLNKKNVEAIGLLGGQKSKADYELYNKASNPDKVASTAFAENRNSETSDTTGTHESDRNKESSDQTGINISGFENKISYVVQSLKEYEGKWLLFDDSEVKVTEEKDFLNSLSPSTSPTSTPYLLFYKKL
recombinant human His6-USP1/His6-UAF1 composite protein, sequence (Q8TAF3 whole entry partner): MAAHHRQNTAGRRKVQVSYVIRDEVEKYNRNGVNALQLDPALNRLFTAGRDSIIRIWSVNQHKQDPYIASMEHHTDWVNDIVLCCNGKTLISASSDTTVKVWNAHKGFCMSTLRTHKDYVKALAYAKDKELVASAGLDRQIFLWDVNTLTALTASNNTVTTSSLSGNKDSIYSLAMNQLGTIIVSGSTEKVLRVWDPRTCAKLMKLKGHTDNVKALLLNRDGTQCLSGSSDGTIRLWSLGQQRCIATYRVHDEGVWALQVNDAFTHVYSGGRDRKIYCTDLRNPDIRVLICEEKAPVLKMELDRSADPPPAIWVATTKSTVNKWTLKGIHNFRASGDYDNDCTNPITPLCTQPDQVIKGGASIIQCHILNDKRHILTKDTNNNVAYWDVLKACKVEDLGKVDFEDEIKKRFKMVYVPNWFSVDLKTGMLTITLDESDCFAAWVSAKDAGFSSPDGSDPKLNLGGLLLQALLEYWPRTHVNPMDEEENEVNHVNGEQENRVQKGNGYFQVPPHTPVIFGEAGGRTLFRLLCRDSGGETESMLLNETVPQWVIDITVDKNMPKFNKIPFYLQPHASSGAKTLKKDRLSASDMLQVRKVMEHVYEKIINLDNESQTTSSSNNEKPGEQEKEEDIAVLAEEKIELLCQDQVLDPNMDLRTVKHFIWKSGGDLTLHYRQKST
Source text: USPli compounds were screened by USP1 enzyme activity detection experiment.
1.1 Experimental materials: recombinant human His6-USP1/His6-UAF1 composite protein. (R&D, catalog number E-568-050): Ubiquitin rhodamine 110 (Ub-Rho) (R&D, catalog number U-555-050); Fluorescent 384-well plate (Perkin Elmer, Art. No. 6007279).
1.2 Test sample: Compounds of table 3 in this application, whose structural formulae and preparation methods are shown in the above examples.
Using Equation (I) to fit data in Excel to obtain the inhibition value;
[formula] • wherein, the maximum signal value represents the luminous signal intensity of the positive control hole without adding the compound of the application; the minimum signal value represents the luminous signal intensity of the negative control hole without enzyme; and the target signal value represents the luminous signal intensity of the Test samples; and • fitting the data in XL-Fit with Equation (II) to obtain IC50 value:
[formula] • wherein Y is the inhibition rate, X is the concentration of the compound; Bottom is the lowest inhibition rate; Top is the highest inhibition rate; and HillSlope is the slope.
For the compound `COc1ncnc(C2CC2)c1-c1ncc2c3cccc(Cl)c3n(Cc3ccc(-c4nc(C(F)(F)F)cn4C)cc3)c2n1` [Compound 44], the half-maximal inhibitory concentration (IC50) was 4.22 nM.
As for `COc1ncnc(C2CC2)c1-c1ncc2c3ccc(C(F)(F)F)cc3n(Cc3ccc(-c4nc(C(F)(F)F)cn4C(C)C)cc3)c2n1` [Compound 8, 2-(4-cyclopropyl-6-methoxypyrimidin-5-yl)-9-(4-(1-isopropyl-4-(trifluoromethyl)-1H-imidazo 1-2-yl)benzyl)-7-(trifluoroethyl)-9H-pyrimido[4,5-b]indole], the IC50 was 21 nM.
In the case of `COc1ncnc(C2CC2)c1-c1ncc2c3ccncc3n(Cc3ccc4c(c3)CCn3cc(C(F)(F)F)nc3-4)c2n1` [Compound 65], the IC50 was 59.6 nM.
With `COc1cc(Cn2c3ccccc3c3cnc(-c4c(OC)ncnc4C4CC4)nc32)ccc1-c1nc(C(F)(F)F)cn1C(C)C` [Compound 18], the IC50 came to 7.38 nM.
As for `COc1ncnc(C2CC2)c1-c1ncc2c3cnn(C)c3n(Cc3ccc4c(c3)CCCn3cc(C(F)(F)F)nc3-4)c2n1` [Compound 123], the IC50 was 13.7 nM.
`COc1ncnc(C2CC2)c1-c1ncc2c3cn(C)nc3n(Cc3ccc(-c4nc(C(F)(F)F)c5n4CCOC5)cc3)c2n1` [Compound 139]: the IC50 was 23.5 nM.
Next, `COc1ncnc(C2CC2)c1-c1ncc2c3ncccc3n(Cc3ccc(-c4nc(C(F)(F)F)cn4C(C)C)cc3)c2n1` [Compound 3, 2-(4-cyclopropyl-6-methoxypyrimidin-5-yl)-9-(4-(1-isopropyl-4-(trifluoromethyl)-1H-imidazo 1-2-yl)benzyl)-9H-pyridino[2′,3′: 4,5]pyrrolo[2,3-d]pyrimidine]: 5.55 nM; `COc1ncnc(C2CC2)c1-c1ncc2c3ccc(C(F)F)cc3n(Cc3ccc(-c4nc(C(F)(F)F)cn4C)cc3)c2n1` [Compound 40]: 15.1 nM.
As for `COc1ncnc(C2CC2)c1-c1ncc2c3cc(F)ccc3n(Cc3ccc(-c4nc(C(F)(F)F)cn4C(C)C)cc3)c2n1` [Compound 15], the half-inhibitory concentration (IC50) is 12.2 nM.
With `COc1ncnc(C2CC2)c1-c1ncc2c3ncncc3n(Cc3ccc4c(c3)CCCn3cc(C(F)(F)F)nc3-4)c2n1` [Compound 112], the IC50 came to 23.9 nM.
Turning to `COc1ncnc(C2CC2)c1-c1ncc2c3cn(C)nc3n(Cc3ccc4c(c3)C3C(Cn5cc(C(F)(F)F)nc5-4)C3(F)F)c2n1` (stereo not shown) [Compound 133], the IC50 was 22 nM.
For the compound `[2H]C([2H])([2H])n1cc2c3cnc(-c4c(OC)ncnc4C4CC4)nc3n(Cc3ccc(-c4nc(C(F)(F)F)cn4C(C)C)cc3)c2n1` [Compound 110], the IC50 was found to be 9.5 nM.
Consider `COc1ncnc(C2CC2)c1-c1ncc2c3ccncc3n(Cc3ccc4c(c3)Cn3cc(C(F)(F)F)nc3-4)c2n1` [Compound 71], for which the IC50 was determined as 108 nM.
As for `CCn1cc(C(F)(F)F)nc1-c1ccc(Cn2c3cc(C#N)ccc3c3cnc(-c4c(OC)ncnc4C4CC4)nc32)cc1` [Compound 50], the IC50 amounted to 4.84 nM.
Take `COc1ncnc(C2CC2)c1-c1ncc2c3cccc(F)c3n(Cc3ccc(-n4nc(C(F)(F)F)cc4C)cc3)c2n1` [Compound 49]: the IC50 worked out at 21.2 nM.
Regarding `CC(C)n1ncc(Cl)c1-c1ncc2c3ccccc3n(Cc3ccc(-c4nc(C(F)(F)F)cn4C)cc3)c2n1` [Compound 20], the IC50 was 3.26 nM.
For `CCn1cc(C(F)(F)F)nc1-c1ccc(Cn2c3nc(-c4c(OC)ncnc4C4CC4)ncc3c3cccc(F)c32)cc1` [Compound 35], the IC50 came out at 9.82 nM.
Turning to `COc1ncnc(C2CC2)c1-c1ncc2c3cccc(OC)c3n(Cc3ccc(-c4nc(C(F)(F)F)cn4C(C)C)cc3)c2n1` [Compound 46], the IC50 is 3.6 nM.
Next, `COc1ncnc(C2CC2)c1-c1ncc2c3cn(C)nc3n(Cc3ccc(-c4nc(C(F)(F)F)cn4C)c(F)c3)c2n1` [Compound 118]: 3.57 nM.
With `COc1ncnc(C2CC2)c1-c1ncc2c3ccc(N(C(C)C)S(C)(=O)=O)cc3n(Cc3ccc4c(c3)CCCn3cc(C(F)(F)F)nc3-4)c2n1` [Compound 99], the IC50 is 3.13 nM.
With `COc1ncnc(C2CC2)c1-c1ncc2c3c(C(N)=O)cccc3n(Cc3ccc(-c4nc(C(F)(F)F)cn4C)cc3)c2n1` [Compound 47], the IC50 is 5.26 nM.
`COc1ncnc(C2CC2)c1-c1ncc2c3ccncc3n(Cc3ccc(-c4nc(C(F)(F)F)c(F)n4C)cc3)c2n1` [Compound 155]: the IC50 came to 26 nM.
Consider `COc1ncnc(C2CC2)c1-c1ncc2c3cc(S(C)(=O)=O)ccc3n(Cc3ccc(-c4nc(C(F)(F)F)cn4C)cc3)c2n1` [Compound 37], for which the IC50 came out at 58 nM.
Take `COc1ncnc(C2CC2)c1-c1ncc2c3cccnc3n(Cc3ccc(-c4nc(C(F)(F)F)cn4C)cc3)c2n1` [Compound 53]: the IC50 is 5.58 nM.
On to `COc1ncnc(C2CC2)c1-c1ncc2c3ccc(C#N)cc3n(Cc3ccc(-c4nc(C(F)(F)F)c5ccccn45)cc3)c2n1` [Compound 126], for which the IC50 is 7.1 nM.
Next, `COc1ncnc(C2CC2)c1-c1ncc2c3cccc(F)c3n(Cc3ccc(-c4nc(C(F)(F)F)cn4C(C)C)cc3)c2n1` [Compound 6, 2-(4-cyclopropyl-6-methoxypyrimidin-5-yl)-8-fluoro-9-(4-(1-isopropyl-4-(trifluoromethyl)-1H-imidazol-2-yl)benzyl)-9H-pyrimido[4,5-b]indole]: 6.07 nM; `COc1ncnc(C2CC2)c1-c1ncc2c3ccc(N4CCOCC4)nc3n(Cc3ccc4c(c3)CCCn3cc(C(F)(F)F)nc3-4)c2n1` [Compound 135]: 4.4 nM; `Cn1cc(C(F)(F)F)nc1-c1ccc(Cn2c3cnccc3c3cnc(-c4cccc5ccn(C)c45)nc32)cc1` [Compound 85]: 73.5 nM.
`COc1ncnc(C2CC2)c1-c1ncc2c3ccncc3n(Cc3ccc4c(c3)CCCn3cc(C(F)(F)F)nc3-4)c2n1` [Compound 61]: the half-inhibitory concentration (IC50) worked out at 3.14 nM.
Next, `COc1ncnc(C2CC2)c1-c1ncc2c3ccc(C#N)cc3n(Cc3ccc4c(c3)Cn3cc(C(F)(F)F)nc3-4)c2n1` [Compound 70]: 191 nM; `COc1ncnc(C2CC2)c1-c1ncc2c3cc(F)cnc3n(Cc3ccc4c(c3)CCCn3cc(C(F)(F)F)nc3-4)c2n1` [Compound 146]: 11.6 nM.
Next, `COc1ncnc(C2CC2)c1-c1ncc2c3ccc(C#N)cc3n(Cc3ccc(-c4nc(C(F)(F)F)cn4C(C)C)cc3)c2n1` [Compound 51]: 5.9 nM; `COc1ncnc(C2CC2)c1-c1ncc2c3cccnc3n(Cc3ccc(-c4nc(C(F)(F)F)cn4C(C)C)cc3)c2n1` [Compound 36]: 8.98 nM.
In the case of `COc1ccc2c3cnc(-c4c(OC)ncnc4C4CC4)nc3n(Cc3ccc4c(c3)CCCn3cc(C(F)(F)F)nc3-4)c2n1` [Compound 93], the IC50 turned out to be 2.56 nM.
Regarding `COc1ncnc(C2CC2)c1-c1ncc2c3cn(C)nc3n(Cc3ccc(-c4nc(C(F)(F)F)cs4)cc3)c2n1` [Compound 166], the IC50 turned out to be 10.2 nM.
With `COc1ncnc(C2CC2)c1-c1ncc2c3cnccc3n(Cc3ccc(-c4nc(C(F)(F)F)cn4C)cc3)c2n1` [Compound 57], the IC50 is 14.8 nM.
Next, `COc1ncnc(C2CC2)c1-c1ncc2c3ccccc3n(Cc3ccc(-c4nc(C(F)(F)F)cn4C(C)C)nc3)c2n1` [Compound 16]: 7.55 nM; `COc1ncnc(C2CC2)c1-c1ncc2c3ccc(NS(C)(=O)=O)cc3n(Cc3ccc(-c4nc(C(F)(F)F)cn4C)cc3)c2n1` [Compound 59]: 7.21 nM.
Regarding `CC(C)c1ncccc1-c1ncc2c3ccncc3n(Cc3ccc(-c4nc(C(F)(F)F)cn4C)cc3)c2n1` [Compound 80], the IC50 came to 6.55 nM.
Regarding `CCn1cc(C(F)(F)F)nc1-c1ccc(Cn2c3cc(C(F)(F)F)ccc3c3cnc(-c4c(OC)ncnc4C4CC4)nc32)cc1` [Compound 45], the concentration for half-maximal inhibition (IC50) was 4.4 nM.
For `COc1ncnc(C2CC2)c1-c1ncc2c3ccc(S(C)(=O)=O)cc3n(Cc3ccc(-c4nc(C(F)(F)F)cn4C(C)C)cc3)c2n1` [Compound 14], the IC50 is 4.32 nM.
In the case of `COc1ncnc(C2CC2)c1-c1ncc2c3cccc(C#N)c3n(Cc3ccc(-c4nc(C(F)(F)F)cn4C)cc3)c2n1` [Compound 26], the IC50 stood at 11.5 nM.
On to `COc1ncnc(C2CC2)c1-c1ncc2c3ccncc3n(C3CCc4cc(-c5nc(C(F)(F)F)cn5C)ccc43)c2n1` (stereo not shown) [Compound 124], for which the IC50 was determined as 38.5 nM.
With `COc1ncnc(C2CC2)c1-c1ncc2c3ccccc3n(Cc3ccc(-c4nc(C(F)(F)F)cn4C(C)C)cc3)c2n1` [Compound 2, 2-(4-cyclopropyl-6-methoxypyrimidin-5-yl)-9-(4-(1-isopropyl-4-(trifluoromethyl)-1H-imidazo 1-2-yl)benzyl)-9H-pyrimido[4,5-b]indole], the IC50 is 7.55 nM.
Regarding `COc1ncnc(C2CC2)c1-c1ncc2c3cn(C)nc3n(Cc3cc(F)c(-c4nc(C(F)(F)F)cn4C)c(F)c3)c2n1` [Compound 115], the IC50 came to 3.03 nM.
In the case of `COc1ncnc(C2CC2)c1-c1ncc2c3ccccc3n(Cc3ccc(-c4nc(C(F)(F)F)cn4C)cc3)c2n1` [Compound 1, 2-(4-cyclopropyl-6-methoxypyrimidin-5-yl)-9-(4-(1-methyl-4-(trifluoromethyl)-1H-imidazol-2-yl)benzyl)-9H-pyrimido[4,5-b]indole], the IC50 worked out at 4.04 nM.
For the compound `COc1ncnc(C2CC2)c1-c1ncc2c3ccncc3n(Cc3ccc(-c4nc(C(F)(F)F)cn4C)cc3)c2n1` [Compound 78], the IC50 worked out at 4.39 nM.
Consider `COc1ncnc(C2CC2)c1-c1ncc2c3ccncc3n(Cc3ccc(-c4nc(C(F)(F)F)cn4C(C)C)cc3)c2n1` [Compound 29], for which the IC50 was found to be 4.62 nM.
Next, `COc1cc(Cn2c3ccccc3c3cnc(-c4c(OC)ncnc4C4CC4)nc32)cc(F)c1-c1nc(C(F)(F)F)cn1C(C)C` [Compound 19]: 8.25 nM; `COc1ncnc(C2CC2)c1-c1ncc2c3ccc(Cl)cc3n(Cc3ccc(-c4nc(C(F)(F)F)cn4C)cc3)c2n1` [Compound 54]: 9.88 nM.
Next, `COc1ncnc(C2CC2)c1-c1ncc2c3cn(C)nc3n(Cc3cc(F)c(-c4nc(C(F)(F)F)c5n4CCC5)c(F)c3)c2n1` [Compound 144]: 3.17 nM.
Regarding `COc1ncnc(C2CC2)c1-c1ncc2c3ccccc3n([C@@H](C)c3ccc(-c4nc(C(F)(F)F)cn4C(C)C)cc3)c2n1` [Compound 13-P1], the IC50 is 6.01 nM.

As a reminder, the IC50 is the midpoint of a concentration-inhibition curve.

Values taken from patent publication US20250368667A1, “USP1 INHIBITOR” (Shanghai Qilu Pharmaceutical Research and Development …, priority 2022, published 2025).
